In patent publication US20190015423A1, “REGULATION OF GENE EXPRESSION BY MODULATING PRIMARY CILIA LENGTH” (THE TRUSTEES OF COLUMBIA UNIVERSITY IN THE CITY OF NEW YORK, priority 2016, published 2019):
Entries after “also recorded” stand apart in the source; their conditions may differ. Counter-ions that a name gives are not always drawn.

Columns and labels:
MC3T3 osteoblasts = test: Flow-induced paracrine signaling: conditioned media of treated osteocytes on osteoblasts (OPN mRNA); type: cell-based; conditions: osteocytes treated with tubastatin 5 μM 3-4 hours; 12 hrs flow; osteoblasts cultured 24 hours
C57Bl/6 mice = test: Load-induced bone formation: compressive ulnar loading and dynamic histomorphometry; type: in vivo
Text: All data are shown in reference to the non-loaded contralateral limb as control. […] On day 4-6 the mice were subjected to daily axial compressive ulnar loading. Mice were placed under isoflurane anesthesia and forelimbs were placed between two loading cups controlled by an electromagnetic loading system with feedback control (Bose, ELF 3220). An initial 0.1 N preload was applied, followed by 3 N of cyclic compression applied with a 2 Hz sine wave for 120 cycles, generating a strain gage verified average peak deformation of 1895 μstrain. On day 8, mice were subcutaneously injected with calcein (10 mg/kg) and alizarin red (70 mg/kg) on day 12. Mice were euthanized on day 18 and prepared for dynamic histomorphometric analysis.
Compressive ulnar loading was applied on days 5-7 to mechanically stimulate bone (3N at 2 Hz for 120 cycles) [9].
On the final three days of drug or control injection, animals were also subjected to compressive ulnar load at a peak load of 3 N using a 2 Hz sine wave for 120 cycles, as previously described (Temiyasathit, S. et al. PLoS One 7, (2012); Lee, K. L. et al. FASEB J. 28, 1157-1165 (2014)). Contralateral limbs served as a non-loaded control. 2 days following load, mice were treated with 10 mg/kg calcein (Sigma), and 4 days later 70 mg/kg alizarin (Sigma), with mice being sacrificed 6 days later.
Dynamic histomorphometry was performed as previously described, measuring the amount and separation of calcein and alizarin labels to quantify mineralizing surface (rMS/BS), mineral apposition rate (rMAR), and bone formation rate (rBFR/BS) relative to non-loaded controls (Temiyasathit, S. et al. PLoS One 7, (2012); Lee, K. L. et al. FASEB J. 28, 1157-1165 (2014)). Left and right ulnae were dissected and preserved in ethanol. Samples were then infiltrated with methyl methacrylate, and embedded in methyl methacrylate and benzoyl peroxide. Transverse sections of the ulnar midshaft were imaged on a laser scanning confocal microscope (Olympus Fluoview FV1000). Measurements of outer bone perimeter (OP), single label perimeter (SL), double label perimeter (DL), and double label area (DA) were made in ImageJ. The mineralizing surface relative to outer bone surface (MS/BS), mineral apposition rate (MAR), and bone formation rate (BFS/BS) were calculated as:
Relative measurements—rMS/BS, rMAR, rBFR/BS—were determined by subtracting non-loaded from loaded ulnae to display differences due to mechanical load.

MLO-Y4 osteocytes [1] = test: Oscillatory fluid flow-induced mRNA expression (COX-2, OPN, AC6), flow vs no flow; type: cell-based
MLO-Y4 osteocytes [2] = test: Primary cilia length and incidence by immunocytochemistry (acetylated α-tubulin); type: cell-based
Method: MLO-Y4 osteocytes were cultured on collagen-coated dishes in MEMα (Life Tech) supplemented with 5% fetal bovine serum, 5% calf serum, and 1% penicillin/streptomycin at 37° C. and 5% CO2. […] These agents, or their vehicle control, were applied to cells for 16 h prior to experimentation. MTT, (methylthiazolyldiphenyl-tetrazolium bromide) assay (Sigma) was performed according to manufacturer's protocol to assess cell viability during drug treatments. Phase contrast microscopy with an Olympus CKX41 inverted microscope and 40× objective was used to assess cell morphology.
For primary cilia imaging and analysis, cells cultured on collagen I-coated glass were fixed in 10% formalin and treated with anti-acetylated α-tubulin primary antibody, 1:1, from a C3B9 hybridoma cell line (Sigma). Cilia were visualised with Alexa-Fluor 488 secondary antibody, 1:1000 (Life Technologies) and imaged with a 100× oil objective on an Olympus Fluoview FV1000 confocal microscope. Nuclei were stained with DAPI (Life Technologies). Cilia length was analyzed using Image J software.
Gene silencing was performed by siRNA mediated knockdown and compared to scramble siRNA control (Life Technologies). […]

MLO-Y4 osteocytes [3] = test: High-throughput drug screening of primary cilia length and incidence; type: cell-based; conditions: 10 μM, 16 hours, triplicate; normalized to vehicle control; standard deviation away from the population average
In short: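 MLO-Y4 osteocytes on collagen I, treated 16 h with 10 μM compound in triplicate, fixed, stained for acetylated α-tubulin and Hoechst, imaged at 40× (4 fields/well); cilia length and incidence normalized to plate DMSO controls. Hits ranked by SD from population mean, requiring ≥40% viability by nuclei count.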

[4] = AC6 siRNA, mechanically stimulated cells

Molecule | Average Incidence SD Away (MLO-Y4 osteocytes [3]) [SD] | Average Length SD Away (MLO-Y4 osteocytes [3]) [SD] | also measured
CN1CCc2c(c3ccccc3n2Cc2ccc(C(=O)NO)cc2)C1 [tubastatin, tubastatin A] |  |  | osteoblast osteogenic gene (osteopontin, OPN) expression after conditioned media from flow-stimulated osteocytes (MC3T3 osteoblasts): decreased; also recorded: impaired; relative bone formation rate (rBFR) (C57Bl/6 mice; tubastatin 5 mg/kg s.c. 6 consecutive days, load day 4-6, n=3, preliminary study): did not elicit a marked change; relative bone formation rate (rBFR) (C57Bl/6 mice; tubastatin 5 mg/kg s.c. 6 consecutive days, load day 4-6, n=3, preliminary study, listed as Tubastatin): slightly decreased; decrease in active mineralizing surface (rMS/BS) (C57Bl/6 mice; tubastatin 5 mg/kg s.c. 6 consecutive days, data not shown): over 50%
CCCCCCCCCC(=O)O[C@@H]1[C@@H](C)[C@@]2(O)[C@@H](C=C(CO)C[C@@]3(O)C(=O)C(C)=C[C@@H]23)[C@@H]2C(C)(C)[C@]12OC(=O)CCCCCCCCC [4αPDD] |  |  | relative bone formation rate (rBFR/BS) compared to vehicle control (C57Bl/6 mice; 4αPDD 250 μg/kg s.c. 6 consecutive days, load day 4-6, n=3, preliminary study): did not promote a significant increase
IFT88 siRNA: siRNA 5′-CCAGAAACAGATGAGGACGACCTTT-3′ (SEQ ID NO:1) (listed as DNA, chemistry not given here) |  |  | decrease of flow-induced OPN mRNA expression compared to scramble control (MLO-Y4 osteocytes [1]; IFT88 siRNA, flow 1 h): 43%±2%; primary cilia incidence compared to scramble control (MLO-Y4 osteocytes [2]; 20 μM IFT88 siRNA, 48 hours): lower incidence; also recorded: decreases; primary cilia length compared to scramble control (MLO-Y4 osteocytes [2]; 20 μM IFT88 siRNA, 48 hours): significantly shorter; also recorded: decreased
AC6 siRNA: siRNA 5′-CCTGCCACCTACAACAGCTCAATTA-3′ (SEQ ID NO:2) (listed as DNA, chemistry not given here) |  |  | decrease of AC6 expression (MLO-Y4 osteocytes [1]; [4]): 50%±3%; decrease of flow-induced OPN expression (MLO-Y4 osteocytes [1]; [4]): 30%±3%; cilia incidence (MLO-Y4 osteocytes [2]; AC6 siRNA): no effect; also recorded: Neither AC6 siRNA nor fenoldopam alter cilia incidence; decrease in cilia length (MLO-Y4 osteocytes [2]; AC6 siRNA): 10%±3%
COc1ccc(C(=O)CC(=O)c2ccc(C(C)(C)C)cc2)cc1 [Avobenzone (Parsol 1789), Avobenzone] | 1.502 |  | 
O=C1NC(=O)c2c1c1c3ccccc3[nH]c1c1[nH]c3ccccc3c21 [Arcyriaflavin A] | 1.892 |  | 
Nc1nccc(-c2ccc3noc(-c4ccc(Cl)cc4)c3c2)n1 [PIM 1 Inhibitor 2] |  | 3.223 | 
O=C1CN=C(c2cccc(Br)c2)c2oc3ccccc3c2N1 [5-BDBD] |  | 1.92 | 
C[C@@H]1C[C@@H]([C@H](O)CC2CC(=O)NC(=O)C2)C(=O)[C@@H](C)C1 [CYCLOHEXIMIDE] |  | 3.609 | 
Cc1nccn1CC1CCc2c(c3ccccc3n2C)C1=O (stereo not shown) [Ondansetron (Zofran), Ondansetron] | 1.506 |  | 
COc1cc2c(cc1OC)CC(=O)N(CCCN(C)C[C@H]1Cc3cc(OC)c(OC)cc31)CC2 [Ivabradine HCl (Procoralan), Ivabradine HCl] | 1.611 |  | 
O=C(NCCO[N+](=O)[O-])c1cccnc1 [Nicorandil (Ikorel), Nicorandil] | 1.556 |  | 
COC(=O)Nc1nc2ccc([S+]([O-])c3ccccc3)cc2[nH]1 (stereo not shown) [Oxfendazole] | 2.268 | 1.574 | 
Gabexate mesylate | 1.87 |  | 
CCCOc1ccc2nc(NC(=O)OC)[nH]c2c1 [Oxibendazole] | 4.084 |  | 
O=C1Nc2ccccc2/C1=C1/Nc2ccccc2/C1=N\O [Indirubin-3′-oxime] |  | 2.475 | 
